This is an account of results in article PMC11705955, “Lack of activity of HIV-1 integrase strand-transfer inhibitors on recombinase activating gene (RAG) activity at clinically relevant concentrations” (Microbiology Spectrum, 2024).

In series [1] the target is T1, recombinant human core RAG1 (AA387-1011)/core RAG2 (AA1-387) in the presence of HMGB1 (Homo sapiens, UniProt P15918+P55895).
T1 construct: made in house; host or cells: RAG1/RAG2 co-expressed in Expi293F GnTI human cells; HMGB1 in E. coli BL21DE3
T1 sequence (P15918 387-1011): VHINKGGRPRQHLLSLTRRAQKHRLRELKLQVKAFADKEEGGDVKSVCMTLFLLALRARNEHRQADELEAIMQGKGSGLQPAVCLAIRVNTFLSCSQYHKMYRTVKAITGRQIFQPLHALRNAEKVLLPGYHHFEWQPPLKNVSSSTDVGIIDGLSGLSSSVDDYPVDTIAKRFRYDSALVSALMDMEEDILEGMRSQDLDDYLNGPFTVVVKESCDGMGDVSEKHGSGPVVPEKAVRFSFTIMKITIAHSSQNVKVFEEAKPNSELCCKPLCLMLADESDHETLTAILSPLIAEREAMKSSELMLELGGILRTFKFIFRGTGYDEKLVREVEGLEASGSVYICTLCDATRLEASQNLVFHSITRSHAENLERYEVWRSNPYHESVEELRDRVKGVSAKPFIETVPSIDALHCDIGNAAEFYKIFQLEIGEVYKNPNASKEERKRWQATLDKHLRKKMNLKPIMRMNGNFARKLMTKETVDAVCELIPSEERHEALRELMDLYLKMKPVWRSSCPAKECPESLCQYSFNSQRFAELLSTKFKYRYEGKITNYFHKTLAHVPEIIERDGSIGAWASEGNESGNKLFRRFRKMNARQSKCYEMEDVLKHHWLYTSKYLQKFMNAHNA
T1 sequence (P55895 1-387): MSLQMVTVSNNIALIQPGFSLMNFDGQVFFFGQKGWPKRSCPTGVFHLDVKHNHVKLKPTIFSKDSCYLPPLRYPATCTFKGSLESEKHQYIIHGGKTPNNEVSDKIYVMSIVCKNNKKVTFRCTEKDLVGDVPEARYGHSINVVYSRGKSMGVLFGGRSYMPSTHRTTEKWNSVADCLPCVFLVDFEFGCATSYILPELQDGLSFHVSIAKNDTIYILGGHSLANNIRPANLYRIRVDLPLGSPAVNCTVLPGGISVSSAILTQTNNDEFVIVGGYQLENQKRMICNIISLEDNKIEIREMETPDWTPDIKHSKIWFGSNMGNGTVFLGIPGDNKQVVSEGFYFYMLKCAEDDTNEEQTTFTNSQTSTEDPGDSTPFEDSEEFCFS
The experiment in a line: Biochemical RAG DNA cleavage assay (gel-based, dsDNA 12RSS/23RSS substrate). The following applies: for IC50: 25 nM RAG1-RAG2, 575 nM HMGB1, 10 nM dsDNA, 5 mM MgCl2, 1 h 37°C, no serum; for Inhibitory activity against RAG1/RAG2 cleavage: clinically relevant / supratherapeutic concentrations. The source says:
To directly observe the potential inhibition of RAG1/RAG2, we measured the effect of INSTIs on DNA cleavage by RAG1/RAG2 in the presence of HMGB1. This biochemical system utilizes pre-assembled recombinant human core RAG1 (AA387-1011)/core RAG2 (AA1-387) in the presence of excess truncated HMGB1 (AA1-163) and a linear dsDNA RSS substrate, using gel electrophoresis and a fluorescent dye to monitor cleavage products (Fig. 2A) ([24]). The dsDNA RSS substrate, containing both the 12RSS and 23RSS, was designed to have the different cleavage products resolved via gel electrophoresis. RAG1/RAG2 can singly cleave either the 12RSS or the 23RSS, or both, leading to potentially five different products in the reaction (Fig. 2B). HMGB1 orients RAG1/RAG2 for proper binding to the RSS substrate ([16]). We quantified the activity of RAG as the percentage of substrate conversion to a specific cleaved product, as separated by agarose gel electrophoresis and determined by the DNA-binding fluorescent dye. With the 569-bp substrate, a single cleavage of the 12RSS results in a 492-bp dsDNA and a 77-bp hairpin. Cleavage of the 23RSS alone produces a 433-bp dsDNA and a 136-bp hairpin. Successful cleavage of both RSSs results in a 356-bp dsDNA and both of the 77- and 136-bp hairpins. For the RAG activity analysis, we measured the amount of double cleaved product (356 bp) in relation to the amount of substrate (569 bp) at the end of the reaction. The optimal concentrations of RAG1/RAG2, HMGB1, and MgCl2 were determined through titration (Fig. S2). Because there is no direct RAG1/RAG2 inhibitor previously characterized, we used suramin, a polyanionic compound commonly used as a non-specific inhibitor for DNA/RNA binding or processing proteins as a control for inhibition ([25], [26]).
Prior to the cleavage assay, compounds at the designated concentrations were spotted into 96-well plates using the Tecan Digital D300e (Tecan, Mannedorf, Switzerland). RAG1/RAG2 was incubated with HMGB1 and MgCl2 on ice for at least 15 min in a reaction buffer (25-mM 3-(N-morpholino)propanesulfonic acid [MOPS], pH 7.0, 50-mM KCl, and 2-mM DTT). After the initial incubation, the enzyme solution was added to the compound plates and incubated for an additional 15 min at room temperature. dsDNA substrate in reaction buffer was added to the plates to initiate the reaction. The final conditions of the reaction are 25-nM RAG1–RAG2 complex, 575-nM HMGB1, 10-nM dsDNA substrate, and 5-mM MgCl2. After 1 h at 37°C, reactions were quenched by the addition of final concentrations of 0.19% SDS, 45.5-µg/mL Proteinase K, and 60-mM EDTA.
Glycerol was added to a final concentration of 7.6% in each sample, and samples were loaded onto non-denaturing 6% Tris–borate–EDTA (TBE) gels in 1× TBE buffer. The samples were run at 100 V for 1.5 h, and gels were stained with 1× SYBR Gold in 1× TBE for 20 min. The stained gels were imaged with an Amersham Typhoon Biomolecular Imager.
The gel images were analyzed using ImageQuant software (Cytiva). The densities of the 569-bp-length substrate and fully cleaved 356-bp-length product were quantified. The product density was divided by the sum of substrate and product bands to obtain a percent product value. These calculated values were subtracted from a negative control (pre-quenched reaction where EDTA was added before reaction was initiated) and then normalized to the DMSO-treated control. The normalized data were plotted against concentration using GraphPad Prism (version 9.3; GraphPad Software, San Diego, CA, USA).

The next series deals with PBMC primary cells. The experiment in a line: 5-day cytotoxicity assay with Cell Titer Glo readout, PBMC. The format is cell-based. An excerpt: (§1) Supplemental Table S2. CC50 values for INSTIs in 5- day cytotoxicity as says with Cell Titer
(§2) Expi293F GALPC3 GALHEP HUH7 MRC5 MT4 PBMC PBMC
(§3) Kidney Prostate Hepatoma Hepatoma Lung T-cell line Primary Primary
(§4) (embryonic) cancer cell cell line cell line fibroblast cells

Assay in series [2]: as above
The format is cell-based.
Description: as §1, §2, §3, §4

The nature of series [3]: 5-day cytotoxicity assay with Cell Titer Glo readout, Expi293F. The format is cell-based. The note with it: human.
Description: as §1, §2, §3, §4
For orientation: ATP-based viability assays read luminescence as a measure of living cells.

Series [4] is described as follows: 5-day cytotoxicity assay with Cell Titer Glo readout, MRC5. The format is cell-based. The following applies: human.
Description: as §1, §2, §3, §4

Where two headings read alike, the source gives them in different places.

A word on the IC50: it is the point on the concentration scale where inhibition reaches its midpoint. By CC50 is commonly meant the concentration at which the toxic effect on the cells reaches its halfway point. In the case of `O=C(NCc1c(F)cc(F)cc1F)c1cn2c(c(O)c1=O)C(=O)N1[C@H]3CC[C@H](C3)O[C@@H]1C2` [BIC, bictegravir], the IC50 in series [1] is > 0.5 µM. Also, the “Inhibitory activity against RAG1/RAG2 cleavage” value in series [1] is “do not show inhibitory activity”. Further, the CC50 in the series with PBMC primary cells (5 day) is 24.2 µM. Further, the CC50 at 5 day in series [2] (CC50) is 28.5 µM; in series [3], 46 µM; in series [4], > 44.4 µM.

In the case of `C[C@H]1CO[C@@H]2Cn3cc(C(=O)NCc4ccc(F)cc4F)c(=O)c(O)c3C(=O)N12` [CAB, cabotegravir], the IC50 in series [1] is > 0.5 µM. In series [1], the “Inhibitory activity against RAG1/RAG2 cleavage” value is on record as “do not show inhibitory activity”. Moreover, in the series on PBMC primary cells (5 day), the CC50 was found to be 29.5 µM. The CC50 at 5 day is 30 µM in series [2] (CC50), > 100 µM in series [3] and 28.1 µM in series [4].

On to `C[C@@H]1CCO[C@H]2Cn3cc(C(=O)NCc4ccc(F)cc4F)c(=O)c(O)c3C(=O)N12` [DTG, dolutegravir], for which, in series [1], the IC50 was > 0.5 µM. Moreover, in the series on PBMC primary cells (5 day), the CC50 came to 17.9 µM. The CC50 at 5 day came to 28.4 µM in series [2] (CC50), 53.6 µM in series [3] and 38.2 µM in series [4].

With `COc1cc2c(cc1Cc1cccc(Cl)c1F)c(=O)c(C(=O)O)cn2[C@H](CO)C(C)C` [EVG, elvitegravir], the IC50 in series [1] was > 0.5 µM. Also, in series [1], the “Inhibitory activity against RAG1/RAG2 cleavage” value is given as “do not show inhibitory activity”. This compound also had a 50% cytotoxic concentration (CC50) in the series on PBMC primary cells (5 day) of 14.1 µM. Further, the CC50 at 5 day in series [2] (CC50) was 14.6 µM; in series [3], 32.5 µM; in series [4], 14.3 µM.

On to `Cc1nnc(C(=O)NC(C)(C)c2nc(C(=O)NCc3ccc(F)cc3)c(O)c(=O)n2C)o1` [RAL, raltegravir], for which the IC50 in series [1] is > 10 µM. Besides, in series [1], the “Inhibitory activity against RAG1/RAG2 cleavage” value is given as “do not show inhibitory activity”. Moreover, in the series on PBMC primary cells (PBMC Lot2, 5-day, Cell Titer Glo, read-out: CC50), the CC50 is > 44.3 µM. Also, the CC50 at 5 day was > 44.3 µM in series [2] (PBMC Lot1, 5-day, Cell Titer Glo, read-out: CC50); > 100 µM in series [3] (Expi293F, 5-day, Cell Titer Glo, read-out: CC50); > 44.4 µM in series [4] (MRC5, 5-day, Cell Titer Glo, read-out: CC50).

For `O=C(/C=C(\O)c1nnn[nH]1)c1c[nH]c2ccc(Cl)cc12` [p8, 5-CITEP], the IC50 in series [1] is 58.2 ± 5.6 µM. Besides, in the series with PBMC primary cells (5 day), the CC50 was > 44.3 µM. For the same compound, the CC50 at 5 day in series [2] (CC50) was > 44.3 µM; in series [3], > 100 µM; in series [4], > 44.4 µM.
